The text below walks through data of patent US20230064324A1, “NEW USES FOR STEVIOL” (SUNTORY HOLDINGS LIMITED, priority 2019, published 2023).

For test [1], the system named is CHOP. As to the kind of experiment: CHOP expression in neuronal cells under endoplasmic reticulum stress (RT-PCR). Format: cell-based, Rat. The settings on record: pretreatment 1 h, tunicamycin 0.16 μM 24 h. How it is done:
Neuronal cells were prepared as follows. PC12 cells were reconstituted by seeding at 2×10^6 cells/flask to a collagen IV-coated flask, and precultured for 3 days in the growth medium in a CO2 incubator.
(§1) The lysate was preserved at −80° C. until use.
(§2) The internal standard gene used was GAPDH gene.

For test [2], the system named is CHOP. The test is described as follows: CHOP expression in pancreatic cells (βTC6) under endoplasmic reticulum stress (RT-PCR). To be noted: pretreatment 4 h, tunicamycin 0.16 μM 24 h. Type of test: cell-based, Mouse. How it is done: as §1, §2
Test [3] concerns GRP78. As to the kind of experiment: GRP78 expression in pancreatic cells (βTC6) under endoplasmic reticulum stress (RT-PCR). Format: cell-based, Mouse. The settings on record: pretreatment 4 h, tunicamycin 0.16 μM 24 h. How it is done: as §1, §2

With `C=C1C[C@@]23CC[C@H]4[C@@](C)(CCC[C@@]4(C)C(=O)O)[C@@H]2CC[C@]1(O)C3` [Steviol], the “Expression level of CHOP in neuronal cells (relative to GAPDH, untreated=1)” value is reported as 6.61 in test [1] (steviol 6.25 μg/mL), 6.55 in test [1] (steviol 12.5 μg/mL), 6.24 in test [1] (steviol 25 μg/mL) and 5.79 in test [1] (steviol 50 μg/mL). Further, the “Expression level of CHOP in pancreatic cells (relative to GAPDH, untreated=1)” value in test [2] (steviol 6.25 μg/mL) was 2.56; in test [2] (steviol 12.5 μg/mL), 2.46; in test [2] (steviol 25 μg/mL), 2.21; in test [2] (steviol 50 μg/mL), 2.25. Further, the “Expression level of GRP78 in pancreatic cells (relative to GAPDH, untreated=1)” value in test [3] (steviol 6.25 μg/mL) is 2.10; in test [3] (steviol 12.5 μg/mL) it was 2.03; in test [3] (steviol 25 μg/mL), 1.80; in test [3] (steviol 50 μg/mL), 1.66.
